These results are taken from ChEMBL document CHEMBL1821553, “Yojironins E-I, prenylated acylphloroglucinols from Hypericum yojiroanum” (Bioorg Med Chem Lett, 2011).

≈ marks a conversion by molar mass, not a printed value.

For assay [1], the system named is Trichophyton mentagrophytes. The assay can be described thus: Antimicrobial activity against Trichophyton mentagrophytes. It counts as functional, organism-based.
The test system of assay [2] is Candida albicans. Briefly: Antimicrobial activity against Candida albicans. The class given is functional, organism-based.
Assay [3] concerns Cryptococcus neoformans. The assay can be described thus: Antimicrobial activity against Cryptococcus neoformans. It counts as functional, organism-based.
Assay [4] deals with KB. Briefly: Cytotoxicity against human KB cells. The class given is functional, cell-based.
For assay [5], the system named is Aspergillus niger. Briefly: Antimicrobial activity against Aspergillus niger. It counts as functional, organism-based.
Assay [6] relates to P388. The assay can be described thus: Cytotoxicity against mouse P388 cells. The class given is functional, cell-based.

For the molecule `CCC(C)C(=O)C1=C(O)C(C)=C2O[C@@H](C(C)(C)O)C[C@@]2(C/C=C(\C)CCC=C(C)C)C1=O` (stereo partly specified) [YOJIRONIN E], the IC50 was found to be 4 µg/mL (≈ 9 µM) in assay [1]; 4 µg/mL (≈ 9 µM) in assay [2]; 4 µg/mL (≈ 9 µM) in assay [3]; 5 µg/mL (≈ 11.2 µM) in assay [4]; 16 µg/mL (≈ 36 µM) in assay [5]; 3.7 µg/mL (≈ 8.32 µM) in assay [6].

The term IC50 denotes the concentration needed to halve the response being measured. Low readings indicate higher potency, high ones lower potency.
